Data taken from publication PMC10711165, “DNA conformational dynamics in the context-dependent non-CG CHH methylation by plant methyltransferase DRM2” (The Journal of Biological Chemistry, 2023).

Molecular target: T1, DRM2 MTase domain (DOMAINS REARRANGED METHYLTRANSFERASE 2) (Arabidopsis thaliana, UniProt Q9M548)
T1 construct: MTase domain, residues 270-626, His6-SUMO tag cleaved by ULP1, expressed in E. coli BL21 DE3 (RIL); residues 275-626 traced in crystal
T1 sequence (Q9M548 270-626): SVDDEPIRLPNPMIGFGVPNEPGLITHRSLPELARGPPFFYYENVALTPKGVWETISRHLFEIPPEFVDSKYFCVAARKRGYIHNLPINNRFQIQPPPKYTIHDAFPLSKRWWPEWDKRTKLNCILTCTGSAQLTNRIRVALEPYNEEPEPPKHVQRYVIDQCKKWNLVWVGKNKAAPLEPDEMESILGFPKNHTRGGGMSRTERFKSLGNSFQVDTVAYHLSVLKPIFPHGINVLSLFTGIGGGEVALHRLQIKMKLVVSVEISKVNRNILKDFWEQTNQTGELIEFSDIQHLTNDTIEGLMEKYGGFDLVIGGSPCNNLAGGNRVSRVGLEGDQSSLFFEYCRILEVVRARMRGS
Experiment: X-ray crystallography, […] A
Type: binding
Conditions: covalent complex of protein C587 with 18-mer 5-fluorocytosine CTA DNA duplex; SAH at the cofactor site; crystals at 4 °C, 1 mM SAH

Question: Which “X-ray crystallography, 2.91 A” value does the source give for Nc1ncnc2c1ncn2[C@@H]1O[C@H](CSCC[C@H](N)C(=O)O)[C@@H](O)[C@H]1O [S-adenosyl-homocysteine] here?
Answer: The value was “The crystal structure of the DRM2-CTA complex bound to cofactor by-product S-adenosyl-homocysteine (SAH)”.
